According to patent US12599596B2, “Anti-tumor pharmaceutical composition based on immune checkpoint blockade and use thereof” (Shanghai Hui Tian Jin Ze Biotech Co., Ltd., priority 2023, dated 2026):

Key:
Format in all cases: cell-based
[1] = test system: PD-L1 on A549 lung cancer cell membrane; assay: PD-L1 on cell membrane by flow cytometry; details: concentration-dependent 5, 10, 20 μM, 24 h
Method: (§1) • (1) Different types of tumor cells (RKO, HCT116 and HT29 colon cancer cells, and A549, H1975 and H460 lung cancer cells) in the logarithmic growth phase were respectively inoculated on a 6-well plate at an inoculum density of 2.5×10^5 cells/well with 2 mL/well and then placed in a cell incubator overnight incubation. The culture mixture was removed, CBD at different concentrations (0 μM, 5 μM, 10 μM, and 20 μM) was added for treatment for 24 h, the supernatant was removed, and the cells were washed with PBS 2 times, digested with pancreatin, centrifuged at 300×g and 4° C. for 5 min, and collected. The cells were washed with precooled PBS 2 times, centrifuged at 300×g and 4° C. for 5 min, and collected. The cells were washed 2 times with precooled PBS, 100 μL of PBS was added to resuspend the cells, an anti-PD-L1-Alexa Fluor 647 antibody was added, the cells were incubated at room temperature for 30 min and centrifuged at 300×g and 4° C. for 5 min, 300 μL of PBS was added to resuspend the cells in a flow tube, and an Alexa Fluor 647 signal was detected from the sample using a flow cytometer (excitation/emission wavelength of 647 nm/666 nm). • (2) The colorectal cancer cells (RKO) in the logarithmic growth phase were inoculated into a 6-well plate at a density of 2.5×10^5 cells/well, with a 2 mL volume of the suspension in each well. The plate was placed into a cell incubator for incubation overnight, the culture mixture was removed, 20 μM CBD was added for 12 h, the supernatant was removed, PBS was used for washing 2 times, paraformaldehyde was added for fixing for 15 min, 5% BSA was added for fixing for 1 h, PBST was used for washing 2 times, a PD-L1 antibody was added overnight incubation, a red fluorescent antibody was added for incubation at room temperature for 1 h, DAPI was added for staining for 10 min, and finally, a laser scanning confocal microscope was used for photographing and analysis. 4. Research of CBD on Enhancing In Vitro Killing of Tumor Cells by T Cells

[2] = test system: PD-L1 on H1975 lung cancer cell membrane; assay: PD-L1 on cell membrane by flow cytometry; details: concentration-dependent 5, 10, 20 μM, 24 h
Method: as §1

[3] = test system: PD-L1 on H460 lung cancer cell membrane; assay: PD-L1 on cell membrane by flow cytometry; details: concentration-dependent 5, 10, 20 μM, 24 h
Method: as §1

[4] = test system: PD-L1 on HCT116 colon cancer cell membrane; assay: PD-L1 on cell membrane by flow cytometry; details: concentration-dependent 5, 10, 20 μM, 24 h
Method: as §1

[5] = test system: PD-L1 on HT29 colon cancer cell membrane; assay: PD-L1 on cell membrane by flow cytometry; details: concentration-dependent 5, 10, 20 μM, 24 h
Method: as §1

[6] = test system: PD-L1 on RKO colon cancer cell membrane; assay: PD-L1 on cell membrane by flow cytometry; details: concentration-dependent 5, 10, 20 μM, 24 h
Method: as §1

RKO cells = assay: In vitro killing of tumor cells by T cells (NK-92) with CBD, crystal violet; details: CBD 5, 10, 20 μM 12 h, then NK-92 cells 1:500, 24 h; vs control
Method: RKO cells in the logarithmic growth phase were inoculated into a 12-well plate at a density of 5×10^4 cells/mL and placed in a 5% CO2 incubator for growth adhering to a wall overnight. The supernatant was removed, CBD at different concentrations (0 μM, 5 μM, 10 μM, and 20 μM) was added, and the cells were coincubated for 12 h. NK-92 cells (T cells) were added at 1:500, the cells were cultured for 24 h, and a control group without the NK-92 cells was set at the same time. The supernatant was removed, PBS was used for washing 2 times, and 4% paraformaldehyde was added to fix the cells. Then, PBS was used for washing 2 times, crystal violet was added for dyeing for 30 min, and finally, redundant crystal violet was washed away with PBS, and photographing was performed to collect the data.

## C=C(C)[C@@H]1CCC(C)=C[C@H]1c1c(O)cc(CCCCC)cc1O [CBD, cannabidiol]
[1]
  expression of PD-L1 on the cell membrane (flow assay): decreased the expression of PD-L1
[2]
  expression of PD-L1 on the cell membrane (flow assay): decreased the expression of PD-L1
[3]
  expression of PD-L1 on the cell membrane (flow assay): decreased the expression of PD-L1
[4]
  expression of PD-L1 on the cell membrane (flow assay): decreased the expression of PD-L1
[5]
  expression of PD-L1 on the cell membrane (flow assay): decreased the expression of PD-L1
[6]
  expression of PD-L1 on the cell membrane (flow assay): decreased the expression of PD-L1
RKO cells
  viability of RKO cells in CBD+T cells coculture: significantly reduced the viability of RKO cells
